4 compounds from patent publication US8623326B2 (University of Western Ontario, priority 2008, dated 2014) can be followed below.

The test addresses T1, GHSR (Homo sapiens, UniProt Q92847).
T1 construct: expressed in transfected cells; host or cells: CHO-K1
Put plainly: Radioligand binding assay (125I-ghrelin displacement). The note with it: 125I-ghrelin (human) radioligand; for IC50: read-out: IC50 (nM), binding affinity of fluorine bearing ghrelin analogues, human recombinant CHO-K1 cells as receptor source, 18a-c semi-quantitative from % inhibition at 10^-5 to 10^-8 M, duplicated.

Where a SMILES comes first, the peptide text is derived from it. [ ]: non-standard residue; d: D form. The star is where a group is joined. Dap = NC[C@H](N)C(=O)O; X1 = O=C(CCCCCF)*

T1 sequence (Q92847 whole entry): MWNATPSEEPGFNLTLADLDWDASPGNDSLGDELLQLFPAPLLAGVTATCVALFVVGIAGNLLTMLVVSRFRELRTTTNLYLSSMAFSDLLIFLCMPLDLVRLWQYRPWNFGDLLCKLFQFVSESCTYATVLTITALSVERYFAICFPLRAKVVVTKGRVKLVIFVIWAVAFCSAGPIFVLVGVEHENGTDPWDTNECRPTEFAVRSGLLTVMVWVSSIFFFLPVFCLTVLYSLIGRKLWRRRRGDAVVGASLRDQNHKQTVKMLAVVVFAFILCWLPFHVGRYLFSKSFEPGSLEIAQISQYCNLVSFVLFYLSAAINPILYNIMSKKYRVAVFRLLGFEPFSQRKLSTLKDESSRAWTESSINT
Method: Radioligand Binding Assay.
IC50 values were determined by a non-linear, least squares regression analysis using MathIQ™ (ID Business Solutions Ltd., UK).

One may read the inhibition as the change of the read-out against control, counted positive when it falls. Compound `CC(C)C[C@H](NC(=O)[C@H](Cc1ccccc1)NC(=O)[C@H](CNC(=O)CCCCCF)NC(=O)[C@H](CO)NC(=O)CN)C(N)=O` [Cmpd 17, Ghrelin(1-5)-6C—F] (H-GS[Dap](X1)FL-NH2) had an inhibition at 2 µM (at 2000 nM) of about 20%.
Broadly, the IC50 is the concentration that gives 50% inhibition. With `CC(C)C[C@H](NC(=O)[C@H](Cc1ccccc1)NC(=O)[C@H](CNC(=O)CCCCCF)NC(=O)[C@H](CO)NC(=O)CN)C(=O)N[C@@H](CO)C(=O)N1CCC[C@H]1C(=O)N[C@@H](CCC(=O)O)C(=O)N[C@@H](Cc1c[nH]cn1)C(=O)N[C@@H](CCC(N)=O)C(=O)N[C@@H](CCCNC(=N)N)C(=O)N[C@H](C(=O)N[C@@H](CCC(N)=O)C(=O)N[C@@H](CCC(N)=O)C(N)=O)C(C)C` [Cmpd 18a, Ghrelin(1-14)-6C—F], the IC50 was 147 nM.
As to `CC(C)C[C@H](NC(=O)[C@H](Cc1ccccc1)NC(=O)[C@H](CNC(=O)CCCCCCCCF)NC(=O)[C@H](CO)NC(=O)CN)C(=O)N[C@@H](CO)C(=O)N1CCC[C@H]1C(=O)N[C@@H](CCC(=O)O)C(=O)N[C@@H](Cc1c[nH]cn1)C(=O)N[C@@H](CCC(N)=O)C(=O)N[C@@H](CCCNC(=N)N)C(=O)N[C@H](C(=O)N[C@@H](CCC(N)=O)C(=O)N[C@@H](CCC(N)=O)C(N)=O)C(C)C` [Cmpd 18b, Ghrelin(1-14)-9C—F], the IC50 amounted to 39.6 nM.
`CC(C)C[C@H](NC(=O)[C@H](Cc1ccccc1)NC(=O)[C@H](CNC(=O)CCCCCCCCCCCF)NC(=O)[C@H](CO)NC(=O)CN)C(=O)N[C@@H](CO)C(=O)N1CCC[C@H]1C(=O)N[C@@H](CCC(=O)O)C(=O)N[C@@H](Cc1c[nH]cn1)C(=O)N[C@@H](CCC(N)=O)C(=O)N[C@@H](CCCNC(=N)N)C(=O)N[C@H](C(=O)N[C@@H](CCC(N)=O)C(=O)N[C@@H](CCC(N)=O)C(N)=O)C(C)C` [Cmpd 18c, Ghrelin(1-14)-12C—F]: the IC50 stood at 27.9 nM.
